The values below come from ChEMBL document CHEMBL1132082, “Nonsteroidal androgen receptor agonists based on 4-(trifluoromethyl)-2H-pyrano[3,2-g]quinolin-2-one” (Bioorg Med Chem Lett, 1999).

Molecules are shown by their SMILES.

The target of assay [1] is T1, Glucocorticoid receptor (Homo sapiens, UniProt P04150).
T1 sequence (P04150 whole entry): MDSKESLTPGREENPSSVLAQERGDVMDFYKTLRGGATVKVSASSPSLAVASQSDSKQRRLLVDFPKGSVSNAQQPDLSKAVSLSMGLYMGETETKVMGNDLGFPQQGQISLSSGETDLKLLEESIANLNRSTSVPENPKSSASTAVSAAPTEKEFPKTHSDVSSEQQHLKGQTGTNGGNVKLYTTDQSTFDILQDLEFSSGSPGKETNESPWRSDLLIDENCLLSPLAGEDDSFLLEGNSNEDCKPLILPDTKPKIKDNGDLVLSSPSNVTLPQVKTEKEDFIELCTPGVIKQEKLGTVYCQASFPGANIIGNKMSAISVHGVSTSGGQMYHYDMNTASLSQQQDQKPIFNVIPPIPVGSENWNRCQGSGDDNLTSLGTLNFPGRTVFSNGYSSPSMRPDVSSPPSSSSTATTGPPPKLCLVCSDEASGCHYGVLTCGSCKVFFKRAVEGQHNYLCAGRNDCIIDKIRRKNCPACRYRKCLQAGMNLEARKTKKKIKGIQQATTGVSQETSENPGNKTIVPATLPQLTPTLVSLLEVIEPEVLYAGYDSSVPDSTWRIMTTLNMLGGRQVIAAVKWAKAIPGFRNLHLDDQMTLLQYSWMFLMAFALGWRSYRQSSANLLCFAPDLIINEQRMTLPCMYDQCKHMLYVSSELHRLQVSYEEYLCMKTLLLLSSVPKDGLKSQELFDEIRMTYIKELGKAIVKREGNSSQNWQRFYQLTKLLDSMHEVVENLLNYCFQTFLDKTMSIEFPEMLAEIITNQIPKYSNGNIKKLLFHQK
Description: In vitro antagonistic activity against human glucocorticoid receptor (hGR); not active. It is filed as functional.

In assay [2] the target is Estrogen receptor (Homo sapiens, UniProt Q92731+P03372). Description: In vitro antagonistic activity against human estrogen receptor (hER). It is filed as functional.
Assay [3] has as its target T2, Androgen receptor (Homo sapiens, UniProt P10275).
T2 sequence (P10275 whole entry): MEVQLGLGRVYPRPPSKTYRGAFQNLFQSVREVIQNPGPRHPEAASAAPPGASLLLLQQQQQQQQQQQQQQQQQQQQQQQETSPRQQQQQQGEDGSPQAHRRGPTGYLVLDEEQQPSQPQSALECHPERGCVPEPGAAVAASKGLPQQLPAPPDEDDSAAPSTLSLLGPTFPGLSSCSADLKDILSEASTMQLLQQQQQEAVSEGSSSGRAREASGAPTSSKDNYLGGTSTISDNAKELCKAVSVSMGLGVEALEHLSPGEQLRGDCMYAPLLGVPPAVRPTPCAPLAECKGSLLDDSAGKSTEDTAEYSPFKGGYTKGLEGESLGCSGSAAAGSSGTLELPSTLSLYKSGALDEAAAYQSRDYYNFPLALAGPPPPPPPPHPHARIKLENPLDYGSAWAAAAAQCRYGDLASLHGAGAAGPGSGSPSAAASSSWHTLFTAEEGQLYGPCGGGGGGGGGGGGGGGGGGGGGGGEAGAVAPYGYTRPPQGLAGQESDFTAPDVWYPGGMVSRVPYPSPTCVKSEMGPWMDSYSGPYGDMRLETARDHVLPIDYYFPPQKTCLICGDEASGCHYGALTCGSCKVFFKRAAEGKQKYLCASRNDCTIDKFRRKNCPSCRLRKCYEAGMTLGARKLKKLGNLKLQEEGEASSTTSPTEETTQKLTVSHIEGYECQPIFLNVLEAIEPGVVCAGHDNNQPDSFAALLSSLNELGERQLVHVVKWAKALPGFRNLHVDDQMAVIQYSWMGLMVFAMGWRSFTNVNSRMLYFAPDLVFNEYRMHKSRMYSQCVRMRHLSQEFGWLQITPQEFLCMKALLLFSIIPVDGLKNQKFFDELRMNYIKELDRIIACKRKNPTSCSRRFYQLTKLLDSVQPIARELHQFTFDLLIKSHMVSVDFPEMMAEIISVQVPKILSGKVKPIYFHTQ
Description: biochemical.
Description: In vitro binding affinity at human androgen receptor transfected into COS cells.

As to `CCCC1CCNc2cc3oc(=O)cc(C(F)(F)F)c3cc21` (stereo not given), the half-maximal inhibitory concentration (IC50) in assay [1] was over 10000 nM; in assay [3] it was 5 nM. Also, the Efficacy in assay [2] is under 20%.

On to `CCC1Nc2cc3oc(=O)cc(C(F)(F)F)c3cc2CC1C` (stereo not given), for which the values for the IC50 in assay [1] and in assay [3] were over 10000 nM and 7 nM, respectively. Further, the Efficacy in assay [2] is under 20%.

As to `CCC1CCNc2cc3oc(=O)cc(C(F)(F)F)c3cc21` (stereo not given), the 50% inhibitory concentration (IC50) in assay [1] was over 10000 nM; in assay [3] it was 1 nM. The Efficacy in assay [2] was under 20%.

`CC1CCNc2cc3oc(=O)cc(C(F)(F)F)c3cc21` (stereo not given): the figures for the concentration for half-maximal inhibition (IC50) in assay [1] and in assay [3] were over 10000 nM and 1 nM, respectively. The Efficacy in assay [2] was under 20%.

Regarding `O=c1cc(C(F)(F)F)c2cc3c(cc2o1)NCCC3C(F)(F)F` (stereo not given), the half-maximal inhibitory concentration (IC50) is over 10000 nM in assay [1] and 2 nM in assay [3]. In assay [2], this molecule registered an Efficacy of under 20%.

Usually IC50 stands for the concentration needed to halve the response being measured. Higher therefore signals a need for much substance.
